Experimental data published in ChEMBL document CHEMBL4359862, “Cinnamamide: An insight into the pharmacological advances and structure-activity relationships” (Eur J Med Chem, 2019).
pEC50, pIC50: −log10 of the molar value. Values after ≈ are worked out from the molar mass of the structure shown. One block for each molecule: values may come before it.

Assays:
B2 bradykinin receptor = biological target: T1, B2 bradykinin receptor (Cavia porcellus, UniProt O70526); test: Displacement of [3H]BK from Bradykinin B2 Receptor in guinea pig ileum by liquid scintillation counter; type: tissue-based
T1 sequence (O70526 whole entry): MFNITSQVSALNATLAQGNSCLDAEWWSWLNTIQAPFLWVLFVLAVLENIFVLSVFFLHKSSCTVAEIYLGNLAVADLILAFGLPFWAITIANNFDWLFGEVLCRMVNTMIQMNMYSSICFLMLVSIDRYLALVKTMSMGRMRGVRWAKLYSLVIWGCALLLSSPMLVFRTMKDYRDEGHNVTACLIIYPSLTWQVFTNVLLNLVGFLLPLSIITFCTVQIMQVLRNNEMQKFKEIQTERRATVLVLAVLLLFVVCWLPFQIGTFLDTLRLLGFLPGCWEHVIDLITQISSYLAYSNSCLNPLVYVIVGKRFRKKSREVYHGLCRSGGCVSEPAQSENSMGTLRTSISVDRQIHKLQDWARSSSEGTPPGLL

DU-145 = test: Antiproliferative activity against human DU145 cells assessed as reduction in cell viability incubated for 48 hrs by MTT assay; type: functional, cell-based; conditions: DU-145, 48 h
MGC-803 = test: Antiproliferative activity against human MGC803 cells; type: functional, cell-based
[1] = Inhibition of recombinant LFA1/ICAM1 (unknown origin) interaction in JY-8 cells expressing LFA1 incubated for 45 mins by fluorescence based assay; type: cell-based, Homo sapiens
U-937 = test: Cell cycle arrest in human U937 cells assessed as increase in accumulation in G2 phase incubated for 6 hrs by propidium iodide staining based flow cytometry; type: functional; conditions: U-937, 6 h
[2] = biological target: T2, Tyrosinase (Agaricus bisporus) (UniProt O42713); test: Inhibition of mushroom tyrosinase at 25 uM using L-tyrosine as substrate incubated for 30 mins relative to control
T2 sequence (whole entry): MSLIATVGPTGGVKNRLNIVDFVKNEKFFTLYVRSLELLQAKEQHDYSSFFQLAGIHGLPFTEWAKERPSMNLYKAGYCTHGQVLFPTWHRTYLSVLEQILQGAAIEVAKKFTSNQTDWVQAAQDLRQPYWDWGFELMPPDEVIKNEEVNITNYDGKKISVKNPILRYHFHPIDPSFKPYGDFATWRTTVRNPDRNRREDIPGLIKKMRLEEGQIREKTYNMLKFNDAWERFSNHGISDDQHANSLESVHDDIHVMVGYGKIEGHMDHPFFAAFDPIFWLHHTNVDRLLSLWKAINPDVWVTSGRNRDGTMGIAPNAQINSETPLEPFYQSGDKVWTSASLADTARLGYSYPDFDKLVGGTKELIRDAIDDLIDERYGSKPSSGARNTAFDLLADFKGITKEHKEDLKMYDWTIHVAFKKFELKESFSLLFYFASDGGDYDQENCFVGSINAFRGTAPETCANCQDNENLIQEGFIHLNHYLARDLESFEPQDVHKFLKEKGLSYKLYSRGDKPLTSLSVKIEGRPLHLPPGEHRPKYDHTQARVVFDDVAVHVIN

Escherichia coli [3] = test: Antibacterial activity against Escherichia coli assessed as reduction in bacterial cell viability by well plate method; type: functional
Bacillus subtilis = test: Antibacterial activity against Bacillus subtilis assessed as reduction in bacterial cell viability by well plate method; type: functional
HeLa S3 = test: Antiproliferative activity against human HeLaS3 cells assessed as reduction in cell viability incubated for 72 hrs by cell counter method; type: functional, cell-based; conditions: HeLa S3, 72 h
Escherichia coli [4] = test: Antibacterial activity against Escherichia coli assessed as reduction in bacterial cell viability incubated for 24 hrs by serial dilution assay; type: functional
Candida albicans = test: Antifungal activity against Candida albicans assessed as reduction in fungal cell growth incubated for 48 hrs by serial dilution assay; type: functional
Staphylococcus aureus = test: Antibacterial activity against Staphylococcus aureus ATCC 6538 assessed as reduction in bacterial cell viability incubated for 24 hrs by broth microdilution assay; type: functional, organism-based; conditions: ATCC 6538, 24 h
MCF7 = test: Antiproliferative activity against human MCF7 cells assessed as reduction in cell viability incubated for 48 hrs by MTT assay; type: functional, cell-based; conditions: MCF7, 48 h
[5] = Inhibition of recombinant LFA1/ICAM1 (unknown origin) interaction incubated for 1 hr by time resolved fluorimetry; design: species or system Homo sapiens
[6] = biological target: T3, Amine oxidase [flavin-containing] B (Homo sapiens, UniProt P27338); test: Inhibition of recombinant human MAOB using kynuramine as substrate preincubated with substrate for 10 mins followed by enzyme addition and measured after 20 mins by fluorescence spectrophotometry
T3 sequence (P27338 whole entry): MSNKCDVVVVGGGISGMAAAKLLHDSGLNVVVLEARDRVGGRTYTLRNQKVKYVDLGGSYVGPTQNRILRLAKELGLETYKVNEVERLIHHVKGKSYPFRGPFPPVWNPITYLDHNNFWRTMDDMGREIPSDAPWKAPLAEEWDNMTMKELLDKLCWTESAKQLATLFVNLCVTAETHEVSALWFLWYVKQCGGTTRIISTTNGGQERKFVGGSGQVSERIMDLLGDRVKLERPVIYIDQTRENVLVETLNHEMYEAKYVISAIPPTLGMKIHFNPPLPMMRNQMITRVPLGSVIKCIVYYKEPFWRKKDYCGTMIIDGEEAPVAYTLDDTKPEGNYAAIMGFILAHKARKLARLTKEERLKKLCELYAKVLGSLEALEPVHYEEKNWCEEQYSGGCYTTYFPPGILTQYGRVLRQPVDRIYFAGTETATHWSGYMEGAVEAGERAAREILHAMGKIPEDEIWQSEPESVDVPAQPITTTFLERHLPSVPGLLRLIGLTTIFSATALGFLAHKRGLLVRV

[7] = Inhibition of LFA1/ICAM1 (unknown origin) interaction; design: species or system Homo sapiens
[8] = biological target: Epidermal growth factor receptor (Homo sapiens, UniProt P00533); test: Inhibition of EGFR (unknown origin)
[9] = biological target: Vascular endothelial growth factor receptor 2 (Homo sapiens, UniProt P35968); test: Inhibition of VEGFR (unknown origin)
Vascular endothelial growth factor receptor 2, sequence (P35968 whole entry): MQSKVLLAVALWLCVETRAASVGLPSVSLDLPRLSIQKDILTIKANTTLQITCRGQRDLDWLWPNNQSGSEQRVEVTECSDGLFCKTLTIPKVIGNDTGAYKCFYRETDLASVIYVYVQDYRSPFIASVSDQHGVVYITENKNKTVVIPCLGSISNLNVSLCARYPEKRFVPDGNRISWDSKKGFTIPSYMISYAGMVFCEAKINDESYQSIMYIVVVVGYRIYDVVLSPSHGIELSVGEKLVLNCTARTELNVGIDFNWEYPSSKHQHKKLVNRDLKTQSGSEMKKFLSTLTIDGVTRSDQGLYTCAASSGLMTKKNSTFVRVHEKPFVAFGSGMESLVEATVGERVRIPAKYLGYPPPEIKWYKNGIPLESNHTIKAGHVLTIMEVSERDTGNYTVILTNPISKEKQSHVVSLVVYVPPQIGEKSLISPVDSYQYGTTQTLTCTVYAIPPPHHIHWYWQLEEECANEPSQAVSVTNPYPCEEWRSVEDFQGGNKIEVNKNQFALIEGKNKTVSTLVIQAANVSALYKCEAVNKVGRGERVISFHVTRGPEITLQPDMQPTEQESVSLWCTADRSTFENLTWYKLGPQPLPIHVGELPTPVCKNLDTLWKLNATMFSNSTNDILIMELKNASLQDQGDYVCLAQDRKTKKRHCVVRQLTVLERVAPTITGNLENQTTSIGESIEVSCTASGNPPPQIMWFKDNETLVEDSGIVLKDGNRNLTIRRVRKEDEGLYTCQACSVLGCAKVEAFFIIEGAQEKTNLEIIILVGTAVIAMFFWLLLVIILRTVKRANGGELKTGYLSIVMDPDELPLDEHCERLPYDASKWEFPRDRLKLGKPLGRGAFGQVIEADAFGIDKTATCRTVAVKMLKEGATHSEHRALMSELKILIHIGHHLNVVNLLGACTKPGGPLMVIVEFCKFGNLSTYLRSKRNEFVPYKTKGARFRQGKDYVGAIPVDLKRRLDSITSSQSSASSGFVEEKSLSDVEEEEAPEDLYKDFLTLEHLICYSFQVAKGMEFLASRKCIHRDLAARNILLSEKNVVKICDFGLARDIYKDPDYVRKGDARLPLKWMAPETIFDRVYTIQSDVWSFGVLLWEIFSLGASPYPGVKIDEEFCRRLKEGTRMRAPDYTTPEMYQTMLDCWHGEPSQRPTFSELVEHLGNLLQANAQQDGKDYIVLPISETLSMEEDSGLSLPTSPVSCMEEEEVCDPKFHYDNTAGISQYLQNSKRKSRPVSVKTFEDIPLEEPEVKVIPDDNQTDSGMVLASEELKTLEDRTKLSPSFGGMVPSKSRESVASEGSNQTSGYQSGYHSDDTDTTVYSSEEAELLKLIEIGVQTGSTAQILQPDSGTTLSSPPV

Epidermal growth factor receptor, sequence (P00533 whole entry): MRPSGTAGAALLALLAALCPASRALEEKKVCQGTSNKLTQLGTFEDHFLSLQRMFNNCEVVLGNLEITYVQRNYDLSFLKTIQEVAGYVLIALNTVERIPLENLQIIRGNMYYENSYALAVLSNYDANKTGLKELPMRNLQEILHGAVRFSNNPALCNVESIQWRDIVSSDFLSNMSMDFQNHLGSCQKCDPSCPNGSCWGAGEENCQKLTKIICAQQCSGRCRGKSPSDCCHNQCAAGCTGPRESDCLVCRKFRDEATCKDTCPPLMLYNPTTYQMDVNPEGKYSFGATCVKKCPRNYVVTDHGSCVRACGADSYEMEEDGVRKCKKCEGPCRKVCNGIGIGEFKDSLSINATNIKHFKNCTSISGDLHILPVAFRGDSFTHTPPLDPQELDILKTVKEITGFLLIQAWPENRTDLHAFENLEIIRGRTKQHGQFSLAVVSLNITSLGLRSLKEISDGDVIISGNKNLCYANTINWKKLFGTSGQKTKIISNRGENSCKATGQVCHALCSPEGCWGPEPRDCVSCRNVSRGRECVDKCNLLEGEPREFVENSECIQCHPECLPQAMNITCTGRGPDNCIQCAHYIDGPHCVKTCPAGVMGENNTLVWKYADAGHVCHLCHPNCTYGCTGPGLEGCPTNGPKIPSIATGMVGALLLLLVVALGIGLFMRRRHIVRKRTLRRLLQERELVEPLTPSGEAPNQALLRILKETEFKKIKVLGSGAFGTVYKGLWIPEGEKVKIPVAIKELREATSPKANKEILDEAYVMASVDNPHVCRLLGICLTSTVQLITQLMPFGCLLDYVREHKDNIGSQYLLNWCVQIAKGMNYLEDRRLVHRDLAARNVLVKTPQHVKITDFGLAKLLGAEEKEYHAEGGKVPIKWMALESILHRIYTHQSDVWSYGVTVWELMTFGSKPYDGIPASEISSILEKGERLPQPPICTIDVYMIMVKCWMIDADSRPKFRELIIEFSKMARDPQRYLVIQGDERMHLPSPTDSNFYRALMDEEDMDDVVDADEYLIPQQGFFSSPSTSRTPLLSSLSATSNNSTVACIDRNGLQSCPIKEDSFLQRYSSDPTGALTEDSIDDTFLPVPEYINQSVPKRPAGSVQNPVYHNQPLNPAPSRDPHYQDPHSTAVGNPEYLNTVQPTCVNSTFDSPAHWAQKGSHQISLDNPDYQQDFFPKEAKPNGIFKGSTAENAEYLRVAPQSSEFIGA

- pIC50 (B2 bradykinin receptor): 9.34
SMILES: CNC(=O)c1ccc(/C=C/C(=O)NCC(=O)N(C)c2ccc(Cl)c(COc3cccc4ccc(C)nc34)c2Cl)cn1

- pIC50 (DU-145): 5.13
SMILES: C=CCOc1cc(/C=C/C(=O)Nc2cc(OC)c(OC)c(OC)c2)ccc1N/C=C\C(=O)c1cc(N)c(OC)c(OC)c1

- pIC50 (MGC-803): 5.46
SMILES: CCCc1n[nH]c(C(N)=O)c1NC(=O)/C=C/c1ccccc1

- pIC50 [1]: 7.19
SMILES: CCc1ccccc1Sc1ccc(/C=C/C(=O)N2CCN(C(C)=O)CC2)cc1[N+](=O)[O-]

- pIC50 (U-937): 5.15
SMILES: COc1ccc(/C=C/C(=O)NC23CC4CC(CC(C4)C2)C3)c2ccccc12

- inhibition [2]: 94.4%
SMILES: CN1CCN(C(=O)/C=C/c2ccc(O)cc2O)CC1

- MIC (Escherichia coli [3]): 25 µM (≈ 7.68 µg/mL)
- MIC (Bacillus subtilis): 25 µM (≈ 7.68 µg/mL)
SMILES: COc1cc(/C=C/C(=O)N2CCOCC2)cc(OC)c1OC

SMILES: COc1ccc(/C=C/C(=O)N2C[C@H]3C[C@@]34C2=CC(=O)c2[nH]c(C)c(Br)c24)cc1
- pIC50 (HeLa S3): 10.19

- log(1/MIC) (Escherichia coli [4]): 2.43
- log(1/MIC) (Candida albicans): 2.43
SMILES: O=C(/C=C/c1ccccc1)Nc1ccc([N+](=O)[O-])cc1

SMILES: COc1cc(/C=C/C(=O)NNC(=O)c2ccccc2)cc(OC)c1OC
- pIC50 (Staphylococcus aureus): 4.07

- pIC50 (MCF7): 4.95
SMILES: CCCCCCCCCCCCNC(=O)/C=C/c1ccccc1 [N-DODECYLCINNAMAMIDE]

- pIC50 (MCF7): 4.87
SMILES: CC(C)(C)NC(=O)/C=C/c1ccccc1 [N-TERT-BUTYLCINNAMAMIDE]

- inhibition [2]: 93.7%
SMILES: O=C(/C=C/c1ccc(O)cc1O)Nc1ccccc1

- pIC50 [5]: 7.05
SMILES: CC(=O)N1CCN(C(=O)/C=C/c2ccc(Sc3ccc(Cl)cc3Cl)c([N+](=O)[O-])c2)CC1

- pEC50 [6]: 5.92
SMILES: O=C(/C=C/c1ccc(O)cc1)NCCc1c[nH]c2ccc(O)cc12 [N-P-COUMAROYL SEROTONIN]

- pIC50 [5]: 7.60
SMILES: O=C(O)C1CCCN(C(=O)/C=C/c2ccc(Sc3ccc4c(c3)OCCO4)c(C(F)(F)F)c2)C1 (stereo unspecified)

- pIC50 [7]: 7.40
SMILES: CC(=O)N1CCN(C(=O)/C=C/c2ccc(Sc3ccc4c(c3)OCCO4)c(Cl)c2)CC1

- pIC50 [8]: 8.05
- pIC50 [9]: 8.44
SMILES: COc1ccc(/C=C/C(=O)Nc2cc3c(Nc4ccc(F)c(Cl)c4)ncnc3cc2O[C@@H]2CCOC2)cc1
